Test results: paper PMC12116161, “An Elastase Inhibitor ShSPI from Centipede Attenuates Bleomycin-Induced Pulmonary Fibrosis” (Toxins, 2025)
Where a SMILES comes first, the peptide text is derived from it. Bridges are numbered along the chain shown (N, C = ends).

How the values were obtained:
ICR healthy mice [1] = assay: Single administration toxicity study: blood biochemistry and electrolytes; format: in vivo; details: single airway spray, day 14 post-dose, serum, automated biochemistry analyzer, mean ± s
Description: (§1) Specific pathogen-free (SIPF) grade ICR healthy mice (with an equal number of males and females, procured from Hunan Slaughter King Laboratory Animal Co., Changsha, China) were randomly divided into four experimental groups and received ShSPI via airway spray at doses of 0 mg/kg (control), 40 mg/kg, 80 mg/kg, or 160 mg/kg in a single administration. Following treatment, the mice were monitored for a 14-day observation period. On the fourteenth day, blood plasma samples were collected for precise measurement and analysis of hematological and biochemical parameters. The specific process is as follows.
(§2) On day 14 post-dose, approximately 1.7–2.0 mL of whole blood was collected for hematological and biochemical analyses. Hematological parameters were assessed using an automated hematology analyzer, while biochemical parameters were evaluated with an automated biochemistry analyzer. Prior to blood collection, all mice were fasted for at least 12 h. For hematological analysis, 200 μL of whole blood was immediately transferred into EDTA-containing tubes. For biochemical analysis, 1.5 mL of whole blood was placed into serum separator tubes without anticoagulant and centrifuged to isolate serum.

ICR healthy mice [2] = assay: Single administration toxicity study: hematological examination; format: in vivo; details: 40 mg/kg ShSPI, single airway spray, day 14 post-dose, EDTA whole blood, automated hematology analyzer, mean ± s, n = 6
Description: as §1, §2

[3] = 40 mg/kg ShSPI, n = 6, * p < 0.05 vs blank control
[4] = 80 mg/kg ShSPI, n = 6, * p < 0.05 vs blank control

Compound `CC[C@H](C)[C@@H]1NC(=O)[C@H](C)NC(=O)[C@@H]2CCCN2C(=O)[C@@H]2CSSC[C@H](NC(=O)[C@H](CO)NC(=O)[C@H](CC(N)=O)NC(=O)[C@H](CO)NC(=O)[C@H](Cc3ccc(O)cc3)NC(=O)[C@H](CCSC)NC(=O)[C@H](CCCNC(=N)N)NC(=O)CNC(=O)[C@H](Cc3ccccc3)NC(=O)[C@H](CCC(=O)O)NC(=O)[C@H](CC(=O)O)NC(=O)[C@H](Cc3ccccc3)NC(=O)[C@H](C(C)C)NC(=O)[C@@H]3CCCN3C(=O)[C@H](CCC(N)=O)NC(=O)[C@H](Cc3ccc(O)cc3)NC1=O)C(=O)N[C@@H](CCC(=O)O)C(=O)N[C@@H](CCSC)C(=O)N[C@@H](CCC(N)=O)C(=O)N[C@@H](CCCNC(=N)N)C(=O)N[C@@H](C)C(=O)N[C@@H](CCCNC(=N)N)C(=O)N[C@H](C(=O)N[C@@H](CC(C)C)C(=O)N[C@@H](CCCNC(=N)N)C(=O)NCC(=O)O)CSSC[C@H](N)C(=O)N1CCC[C@H]1C(=O)N[C@@H](CCC(N)=O)C(=O)N[C@@H](C(C)C)C(=O)N2` [ShSPI] (H-CPQVCPAIYQPVFDEFGRMYSNSCEMQRARCLRG-OH; disulfide 1-31, 5-24; N-terminus and C-terminus assumed) has an ALBII (ICR healthy mice [1]; 40 mg/kg ShSPI, n = 6) of 29.13 ± 1.27 g/L, an ALP (ICR healthy mice [1]; 40 mg/kg ShSPI, n = 6) of 85.25 ± 18.91 U/L and an ALT (ICR healthy mice [1]; 40 mg/kg ShSPI, n = 6) of 44.95 ± 22.02 U/L. The AST (ICR healthy mice [1]; 40 mg/kg ShSPI, n = 6) was 97.20 ± 13.33 U/L, the CK (ICR healthy mice [1]; 40 mg/kg ShSPI, n = 6) was 236.4 ± 108.76 U/L and the CREA-S (ICR healthy mice [1]; 40 mg/kg ShSPI, n = 6) was 21.70 ± 4.99 µmol/L. The GLO2 (ICR healthy mice [1]; 40 mg/kg ShSPI, n = 6) was 17.67 ± 0.80 g/L, the Glu-G (ICR healthy mice [1]; 40 mg/kg ShSPI, n = 6) was 9.93 ± 1.48 mmol/L and the T-Bil-VII (ICR healthy mice [1]; 40 mg/kg ShSPI, n = 6) was 1.73 ± 0.80 µmol/L. The TC (ICR healthy mice [1]; 40 mg/kg ShSPI, n = 6) was 2.09 ± 0.33 mmol/L, the TG (ICR healthy mice [1]; 40 mg/kg ShSPI, n = 6) was 1.35 ± 0.50 mmol/L and the TPII (ICR healthy mice [1]; 40 mg/kg ShSPI, n = 6) was 46.81 ± 1.48 g/L. It also gave a UREA (ICR healthy mice [1]; 40 mg/kg ShSPI, n = 6) of 17.07 ± 3.07 mmol/L, a calcium binding (ICR healthy mice [1]; 40 mg/kg ShSPI, n = 6) of 1.23 ± 0.011 mmol/L and a chloride ion (ICR healthy mice [1]; 40 mg/kg ShSPI, n = 6) of 106.80 ± 1.14 mmol/L. It also gave a potassium ion (ICR healthy mice [1]; 40 mg/kg ShSPI, n = 6) of 4.82 ± 0.27 mmol/L, a r-GT (ICR healthy mice [1]; 40 mg/kg ShSPI, n = 6) of 0.38 ± 0.20 U/L and a sodium ion (ICR healthy mice [1]; 40 mg/kg ShSPI, n = 6) of 152.39 ± 1.75 mmol/L. The calcium ionomer (ICR healthy mice [1]; [3]) was 1.23 ± 0.01 * mmol/L, the total calcium (ICR healthy mice [1]; [3]) was 2.48 ± 0.02 * mmol/L and the ALBII (ICR healthy mice [1]; 80 mg/kg ShSPI, n = 6) was 28.05 ± 1.53 g/L. It also gave an ALP (ICR healthy mice [1]; 80 mg/kg ShSPI, n = 6) of 94.75 ± 22.33 U/L, an ALT (ICR healthy mice [1]; 80 mg/kg ShSPI, n = 6) of 38.58 ± 7.12 U/L and an AST (ICR healthy mice [1]; 80 mg/kg ShSPI, n = 6) of 92.95 ± 20.45 U/L. For the same compound, the CK (ICR healthy mice [1]; 80 mg/kg ShSPI, n = 6) was 175.4 ± 69.9 U/L, the CREA-S (ICR healthy mice [1]; 80 mg/kg ShSPI, n = 6) was 23.10 ± 2.24 µmol/L and the GLO2 (ICR healthy mice [1]; 80 mg/kg ShSPI, n = 6) was 17.21 ± 0.82 g/L. For the same compound, the Glu-G (ICR healthy mice [1]; 80 mg/kg ShSPI, n = 6) was 9.71 ± 1.69 mmol/L, the T-Bil-VII (ICR healthy mice [1]; 80 mg/kg ShSPI, n = 6) was 1.47 ± 0.43 µmol/L and the TC (ICR healthy mice [1]; 80 mg/kg ShSPI, n = 6) was 2.21 ± 0.61 mmol/L. The TG (ICR healthy mice [1]; 80 mg/kg ShSPI, n = 6) was 1.21 ± 0.32 mmol/L, the TPII (ICR healthy mice [1]; 80 mg/kg ShSPI, n = 6) was 45.26 ± 1.62 g/L and the UREA (ICR healthy mice [1]; 80 mg/kg ShSPI, n = 6) was 14.79 ± 3.07 mmol/L. For the same compound, the calcium binding (ICR healthy mice [1]; 80 mg/kg ShSPI, n = 6) was 1.24 ± 0.05 mmol/L, the chloride ion (ICR healthy mice [1]; 80 mg/kg ShSPI, n = 6) was 106.5 ± 1.26 mmol/L and the potassium ion (ICR healthy mice [1]; 80 mg/kg ShSPI, n = 6) was 5.01 ± 0.46 mmol/L. The r-GT (ICR healthy mice [1]; 80 mg/kg ShSPI, n = 6) was 0.00 ± 1.01 U/L, the sodium ion (ICR healthy mice [1]; 80 mg/kg ShSPI, n = 6) was 150.7 ± 1.89 mmol/L and the calcium ionomer (ICR healthy mice [1]; [4]) was 1.24 ± 0.05 * mmol/L. The total calcium (ICR healthy mice [1]; [4]) was 2.49 ± 0.10 * mmol/L, the ALBII (ICR healthy mice [1]; 160 mg/kg ShSPI, n = 6) was 30.1 ± 1.28 g/L and the ALP (ICR healthy mice [1]; 160 mg/kg ShSPI, n = 6) was 98.6 ± 27.17 U/L. The ALT (ICR healthy mice [1]; 160 mg/kg ShSPI, n = 6) was 39.80 ± 7.79 U/L, the AST (ICR healthy mice [1]; 160 mg/kg ShSPI, n = 6) was 80.6 ± 16.79 U/L and the CK (ICR healthy mice [1]; 160 mg/kg ShSPI, n = 6) was 156.4 ± 75.0 U/L. The CREA-S (ICR healthy mice [1]; 160 mg/kg ShSPI, n = 6) was 19.1 ± 3.98 µmol/L, the GLO2 (ICR healthy mice [1]; 160 mg/kg ShSPI, n = 6) was 18.0 ± 1.06 g/L and the Glu-G (ICR healthy mice [1]; 160 mg/kg ShSPI, n = 6) was 9.24 ± 1.33 mmol/L. It also gave a TC (ICR healthy mice [1]; 160 mg/kg ShSPI, n = 6) of 2.26 ± 0.33 mmol/L, a TG (ICR healthy mice [1]; 160 mg/kg ShSPI, n = 6) of 1.23 ± 0.35 mmol/L and a TPII (ICR healthy mice [1]; 160 mg/kg ShSPI, n = 6) of 48.2 ± 1.79 g/L. It also gave a UREA (ICR healthy mice [1]; 160 mg/kg ShSPI, n = 6) of 13.6 ± 4.00 mmol/L, a calcium binding (ICR healthy mice [1]; 160 mg/kg ShSPI, n = 6) of 1.28 ± 0.03 mmol/L and a calcium ionomer (ICR healthy mice [1]; 160 mg/kg ShSPI, n = 6) of 1.28 ± 0.03 mmol/L. For the same compound, the chloride ion (ICR healthy mice [1]; 160 mg/kg ShSPI, n = 6) was 106.5 ± 1.44 mmol/L, the potassium ion (ICR healthy mice [1]; 160 mg/kg ShSPI, n = 6) was 4.68 ± 0.30 mmol/L and the r-GT (ICR healthy mice [1]; 160 mg/kg ShSPI, n = 6) was 0.31 ± 0.35 U/L. For the same compound, the sodium ion (ICR healthy mice [1]; 160 mg/kg ShSPI, n = 6) was 152.9 ± 1.60 mmol/L, the total calcium (ICR healthy mice [1]; 160 mg/kg ShSPI, n = 6, * p < 0.05 vs blank control) was 2.5 ± 0.06 * mmol/L and the Bas (ICR healthy mice [2]) was 0.02 ± 0.01 10^9/L. The Bas% (ICR healthy mice [2]) was 0.35 ± 0.28%, the Eos (ICR healthy mice [2]) was 0.09 ± 0.05 10^9/L and the HCT (ICR healthy mice [2]) was 36.98 ± 1.32%. For the same compound, the HGB (ICR healthy mice [2]) was 123.50 ± 5.64 g/L.
